From paper PMC9529985, “Eco-friendly methods of synthesis and preliminary biological evaluation of sulfonamide derivatives of cyclic arylguanidines” (Ultrasonics Sonochemistry, 2022) come the findings set out here.

Series [1] relates to human astrocytoma cell line 1321 N1. Briefly: MTS cytotoxicity test in 1321 N1 astrocytoma cells. The note with it: 1321 N1 cells; for concentration at which activity (statistically significant suppression of cell viability) was seen / IC50: MTS; for viability of the cells compared to vehicle control: 24 h exposure; for IC50: 50 % decrease relative to the maximum inhibition observed, read-out: IC50 (cell viability). The format is cell-based. The method, then:
(§1) The cytotoxic properties of newly synthetized compounds were assessed in human astrocytoma cell line 1321 N1 (RRID:CVCL_0110, European Collection of Authenticated Cell Cultures, ECACC:86030402) and human breast adenocarcinoma cell line MDA-MB-231 (RRID:CVCL_0062; ATCC:HTB-26). ECACC and ATCC perform thorough cell line authentication utilizing Short Tandem Repeat (STR) profiling. Upon receipt of the cell lines, the cells were expanded for a few passages to enable the generation of new frozen stocks. The cells were resuscitated as needed and used for<6 months after resuscitation (no>15 passages). Cell line 1321 N1 was cultured in high-glucose (4500 mg/L) Dulbecco's modified Eagle's medium (DMEM) supplemented with 10 % fetal bovine serum (FBS). The MDA-MB-231 cells were maintained in RPMI-1640 with 10 % FBS. All cell culture media were additionally fortified with penicillin (100 U/mL), streptomycin (100 µg/mL), and amphotericin B (250 ng/mL) to prevent bacterial and yeast contamination. The cell culture media and supplements used in this study were purchased from Sigma-Aldrich. The cells were maintained at 37 °C in a humidified 5 % incubator in an atmosphere of 5 % CO2 and 95 % air.
The cells were subcultured upon reaching the confluency of about 80 %. Cell detachment was facilitated with TrypLE solution (Thermo Fisher Scientific). The cells were counted in a Z2 particle counter (Beckman Coulter), then plated at 5,000 cells/well in 96-well plates (Eppendorf) in 100 µL of full growth medium and cultured overnight to enable cell attachment. Next day, the cells were subjected to either vehicle (0.1 % DMSO) or our compounds of interest for 24, 48, or 72 h. The assessment of cell viability was performed by adding 20 µL/well of the mixture of 3-(4,5-dimethylthiazol-2-yl)-5-(3-carboxymethoxyphenyl)-2-(4-sulfophenyl)–2H-tetrazolium, inner salt (MTS) and phenazine ethosulfate from Promega (#G3580). After 3 h of incubation, the absorbance was recorded at 490 nm using Synergy H1 plate reader (Biotek) The experiments were carried out in quadruplicates and were repeated three times. The obtained values were normalized to vehicle control and plotted.
The IC50 values were calculated with GraphPad Prism 8.0.1 software (nonlinear regression, log(inhibitor) vs normalized response) as the dose that causes a 50 % decrease in cell viability relative to the maximum inhibition observed. Statistical significance determination was evaluated with GraphPad Prism 5.0.1 software using one-way ANOVA, followed by Bonferroni’s comparison test (p < 0.05).

Series [2] can be described thus: PAMPA passive permeability. The format is in vitro ADME. Particulars: PBS pH 7.4, 5 h, room temperature. On the procedure: The ADME-Tox parameters of 10f were analyzed according to described previously protocols, [45] and included: Parallel Artificial Membrane Permeability Assay (PAMPA) passive permeability testing, the influence on CYP3A4 activity, metabolic stability in mouse liver microsomes, and hepatotoxicity assessment with HepG2 cells. The pre-coated PAMPA Plate System Gentest was sourced from Corning (Tewksbury, MA, USA). […] The plate was incubated at room temperature for 5 h without stirring. Then, 50 μL was aspirated from both Acceptor (A) and Donor (D) wells and then diluted with a 50 µL solution of an internal standard (IS). The concentrations of the tested compounds in the A and D wells were estimated with an LC/MS Waters ACQUITY™ TQD system with the TQ Detector (Waters, Milford, USA). The Pe values were estimated according to the proper formulas provided by Corning and described previously in the literature.
A general note: In PAMPA a lipid-coated filter parts donor from acceptor wells.

The nature of series [3]: Metabolic stability in mouse liver microsomes (MLMs). The class given is in vitro ADME. The note with it: for Metabolic pathway: metabolites identified by UPLC-MS; for remaining at 2 h, 50 µM: mouse, liver microsomes, MLMs 1 mg/ml. On the procedure:
The ADME-Tox parameters of 10f were analyzed according to described previously protocols, [45] and included: Parallel Artificial Membrane Permeability Assay (PAMPA) passive permeability testing, the influence on CYP3A4 activity, metabolic stability in mouse liver microsomes, and hepatotoxicity assessment with HepG2 cells.
The metabolic stability of 10f was estimated with mouse liver microsomes (MLMs) (Sigma-Aldrich, St. Louis, MO, USA). The tested compound (50 µM) was incubated in the presence of MLMs (1 mg/ml) for 120 min in a buffer (10 mM Tris–HCl buffer at 37 °C). Then, to terminate the reaction, cold methanol was added to the reaction mixture. The precipitated MLMs were centrifuged and the supernatant was analyzed with a LC/MS Waters ACQUITY™ TQD system with the TQ Detector (Waters, Milford, USA).
On the technique in general: Microsomes from liver hold many membrane-bound enzymes, among them those of drug oxidation.

The subject of series [4] is HepG2 human hepatoma cell line. Put plainly: Hepatotoxicity, MTS assay in HepG2 cells. The class given is cell-based. The note with it: 72 h (Fig. 6 legend). On the procedure: Hepatotoxicity was evaluated by means of an MTS assay described above (section 23) with a HepG2 human hepatoma cell line (ATCC:HB-8065), [48]. […] Compound 10f was tested in a single experiment in quadruplicate.
For orientation: Tetrazolium assays rely on reduction of a dye to a coloured formazan, in cell work by metabolically active cells.

Series [5] in a line: Metabolic stability in mouse liver microsomes (MLMs). The class given is in vitro ADME. Particulars: TRIS-HCl pH 7.4 buffer solution without microsomes, 120 min.
In series [6] the test system is human breast adenocarcinoma cell line MDA-MB-231. Put plainly: MTS cytotoxicity test in MDA-MB-231 cells. The class given is cell-based. Particulars: 24 h, read-out: IC50 (cell viability). The method, then:
as §1, with “All cell culture media were additionally fortified with penicillin (100 U/mL), streptomycin (100 µg/mL), and amphotericin B (250 ng/mL) to prevent bacterial and yeast contamination. The cell culture media and supplements used in this study were purchased from Sigma-Aldrich. The cells were maintained at 37 °C in a humidified 5 % incubator in an atmosphere of 5 % CO2 and 95 % air.” left out
The cells were subcultured upon reaching the confluency of about 80 %. […] The cells were counted in a Z2 particle counter (Beckman Coulter), then plated at 5,000 cells/well in 96-well plates (Eppendorf) in 100 µL of full growth medium and cultured overnight to enable cell attachment. […] After 3 h of incubation, the absorbance was recorded at 490 nm using Synergy H1 plate reader (Biotek) The experiments were carried out in quadruplicates and were repeated three times. […]

For orientation: IC50 means the midpoint of a concentration-inhibition curve. As a reminder, the amount remaining is the share of the starting amount still present when the sample was taken. Higher therefore signals greater stability. As usually defined, the melting point is the temperature of the solid-liquid transition.

SMILES strings stand for the structures. Like-named read-outs stand apart in the source and are kept apart here. Some results are limits rather than exact numbers.

`O=S(=O)(NC1=NCc2ccccc2N1)c1cccc2ccccc12` [10f, N-(1,4-dihydroquinazolin-2-yl)naphthalene-1-sulfonamide]: the “concentration at which activity (statistically significant suppression of cell viability) was seen” value in series [1] (24 h) turned out to be 1 µM. For the same molecule, the “viability of the cells compared to vehicle control” value in series [1] came to 48.0%. The IC50 in series [1] (Homo sapiens, 24 h) was 8220 nM; in series [1] (Homo sapiens, 72 h) it was 130 nM. Further, the viability at 50 µM in series [1] (Homo sapiens, 72 h, 50 µM, read-out: cells still viable) is 32%. The Papp at 5 h, 200 µM in series [2] (read-out: permeability coefficient Pe) was found to be 5 ± 1.5 ×10⁻⁶ cm/s. For the same molecule, in series [3] (MLMs, 120 min), the “metabolic stability (in words)” value was “unstable”. Also, the metabolized in series [3] (MLMs, 120 min incubation, UPLC) is 97%. The Metabolic pathway entry in series [3] (MLMs) was “double hydroxylation and double bound reduction”. This molecule had a fraction remaining at 2 h, 50 µM in series [3] (120 min) of 3%. Further, in series [4] (HepG2, 1–10 µM), the “hepatotoxicity (in words)” value was “did not exhibit hepatotoxic properties”. Also, in series [4] (HepG2, 50 or 100 µM), the “effect on cell viability (in words)” value is on record as “statistically significant decrease in cells viability”. In addition, the “dehydrogenation in control sample” value in series [5] is 5%.
For the molecule `Cn1c(=O)c2c(ncn2C)n(C)c1=O` [caffeine, reference compound], the “permeability coefficient Pe” value in series [2] (200 µM) was 12.2 ± 0.9 × 10^-6 cm/s.
In turn, `Nc1nc2ccccc2n1S(=O)(=O)c1ccc2ccccc2c1` [11c, 1-(naphthalene-2-sulfonyl)-1H-benzimidazol-2-amine] showed a melting point of 188 to 194 °C.
`O=S(=O)(NC1=NCc2ccccc2N1)c1ccccc1` [10e, N-(1,4-dihydroquinazolin-2-yl)benzenesulfonamide] gave a melting point of 182 to 186 °C.
In turn, `O=S(=O)(NC1=NCc2ccccc2N1)c1ccc2ccccc2c1` [10g, N-(1,4-dihydroquinazolin-2-yl)naphthalene-2-sulfonamide] returned a melting point of over 300 °C.
Consider `O=S(=O)(Nc1ncc2ccccc2n1)c1cccc2ccccc12` [Dehydrogenated-10f, N-(quinazolin-2-yl)naphthalene-1-sulfonamide], for which, in series [3] (MLMs), the Metabolic pathway result was “double hydroxylation”. The fraction remaining at 2 h, 50 µM in series [3] (120 min) is 17.5%.
Take `Nc1nc2cc(Cl)ccc2n1S(=O)(=O)c1cccc2ccccc12` [11d, 5-chloro-1-(naphthalene-1-sulfonyl)-1H-benzimidazol-2-amine]: the melting point fell in the range of 225 to 229 °C. Besides, the “concentration at which activity (statistically significant suppression of cell viability) was seen” value in series [1] (24 h) is reported as 1 µM.
Turning to `COc1cccc2c1C(=O)c1c(O)c3c(c(O)c1C2=O)C[C@@](O)(C(=O)CO)C[C@@H]3O[C@H]1C[C@H](N)[C@H](O)[C@H](C)O1` [doxorubicin, reference compound], in series [1], the “viability of the cells compared to vehicle control” value came to 47.5%. In addition, the IC50 in series [1] (Homo sapiens, 24 h) worked out at 1100 nM; in series [6], 1400 nM.
On to `O=S(=O)(NC1=NCc2cc(Cl)ccc2N1)c1ccc2ccccc2c1` [10h, N-(6-chloro-1,4-dihydroquinazolin-2-yl)naphthalene-2-sulfonamide], for which the melting point lay within 207 to 209 °C.
As to `O=S(=O)(Nc1nc2ccccc2[nH]1)c1ccccc1` [10a, N-(1H-benzimidazol-2-yl)benzenesulfonamide], the melting point was over 300 °C.
